Measurements: patent US9717719B2, “Treatment, prevention, and reversal of alcohol-induced liver disease” (Rhode Island Hospital, priority 2006, dated 2017)
“Also recorded” adds a separate entry of the source.

Key:
Format in all cases: in vivo, rat
[1] = test system: Long-Evans male rats fed a 37% ethanol liquid diet; assay: Liver regeneration by BrdU incorporation after 2/3 partial hepatectomy in chronic ethanol fed rats; details: for increase in BrdU labeling: 24 hours after 2/3 hepatectomy, compared to ethanol fed animals; for liver regeneration (BrdU incorporation): after 2/3 hepatectomy
Method: An isocaloric (sucrose substituted for ethanol) diet was administered to pair fed control animals. After three weeks, both groups of rats were injected with either PPAR-α, γ, or δ agonists or saline as a control. […] The […] were given IP injections twice a week. At 6 weeks, the animals underwent 2/3 partial hepatectomy. The removed liver was used for histology, measurement of lipid peroxidation, DNA damage and insulin/IGF signaling as described below. Following ⅔ hepatectomy, the liver remnants were harvested 18, 24, 30 and 48 hours later to assess the regenerative response. To do this, animals were injected IP with BrdU 2 hours before harvest to measure its incorporation into hepatic nuclei as an index of DNA synthesis.

Long Evans rats = assay: Liver histology in the chronic ethanol exposure model; details: for extents of micro- and macrosteatosis / liver histology (hepatic architecture): ethanol-fed rats; for liver histology (hepatic architecture): relative to vehicle
Excerpt: Chow fed control rats were also studied. Rats were monitored daily to ensure equivalent food consumption and maintenance of body weight. […] At the conclusion of the experiment, rats were anesthetized with vaporized isofluorane (SurgiVet, Inc. Waukesha, Wis.), and liver and blood were harvested for analysis. Liver tissue samples were immersion fixed in Histochoice (Amresco Corp., Solon, Ohio) and embedded in paraffin. Adjacent histological sections were stained with Hematoxylin and Eosin or Gomori's Trichrome and examined under code. In addition, liver tissue samples were snap-frozen in a dry ice methanol bath and then stored at −80° C. for later mRNA and protein studies. Throughout the experiment, rats were housed under humane conditions and kept on a 12-hour light/dark cycle with free access to food. All experiments were performed in accordance with protocols that conform to guidelines established by the National Institutes of Health and were approved by Institutional Animal Care and Use Committee at the Lifespan-Rhode Island Hospital.

IGF-II receptor = assay: Saturation binding assay in liver of treated rats, IGF-II receptor binding; details: pooled liver of 8 rats
Excerpt: Adult male (˜200-250 g) Long Evans rats (Harlan Sprague Dawley, Inc., Indianapolis, Ind.) were pair-fed with isocaloric liquid diets (BioServ, Frenchtown, N.J.) containing 0% (control) or 37% ethanol by caloric content (9.2% v/v) for 8 weeks. During the week prior to initiating the experiment, rats were adapted to the ethanol-containing diets by sequentially feeding them for two days each with diets containing 8%, 17%, 24%, and then 37% ethanol. Chow fed control rats were also studied. Rats were monitored daily to ensure equivalent food consumption and maintenance of body weight. During the last 3 weeks of the experiment while being maintained on either the 0% or 37% ethanol-containing liquid diets, rats in both groups were administered twice weekly (Mondays and Thursdays) intra-peritoneal (i.p.) injections of vehicle (saline), a PPAR-α (GW7647; 25 μg/kg), PPAR δ (L-165,041; 2 μg/kg), or PPAR-γ (F-L-Leu; 20 μg/kg) agonist (CalBiochem, Carlsbad, Calif.). At the conclusion of the experiment, rats were anesthetized with vaporized isofluorane (SurgiVet, Inc. Waukesha, Wis.), and liver and blood were harvested for analysis. Liver tissue samples were immersion fixed in Histochoice (Amresco Corp., Solon, Ohio) and embedded in paraffin. Adjacent histological sections were stained with Hematoxylin and Eosin or Gomori's Trichrome and examined under code. In addition, liver tissue samples were snap-frozen in a dry ice methanol bath and then stored at −80° C. for later mRNA and protein studies. Throughout the experiment, rats were housed under humane conditions and kept on a 12-hour light/dark cycle with free access to food. All experiments were performed in accordance with protocols that conform to guidelines established by the National Institutes of Health and were approved by Institutional Animal Care and Use Committee at the Lifespan-Rhode Island Hospital.
Saturation binding studies were used to determine if the PPAR agonist treatments improved ethanol-impaired insulin and IGF receptor binding in liver. Fresh frozen liver tissue was homogenized in 5 volumes of lysis buffer containing 50 mM Tris-HCl, pH 7.5, 1% NP-40, 150 mM NaCl, 1 mM EDTA, 2 mM EGTA, plus protease (1 mM PMSF, 0.1 mM TPCK, 1 μg/ml aprotinin, 1 μg/ml pepstatin A, 0.5 μg/ml leupeptin, 1 mM NaF, 1 mM Na4P2O7) and phosphatase (2 mM Na3VO4) inhibitors. Protein concentration was determined using the bicinchoninic acid (BCA) assay (Pierce, Rockford, Ill.). Exploratory studies determined the optimum amounts of protein and concentrations of radiolabeled ligand required to achieve 20% specific binding. Insulin receptor binding was measured using 100 μg protein per assay tube. IGF-I binding assays required 25 μg protein per sample, and IGF-II receptor binding assays required 10 μg protein per reaction.
To generate the binding curse, samples from 8 rats per group were pooled in equivalent ratios and protein concentrations were adjusted to be identical for each group. For total binding, duplicate samples were incubated in 100 μl reactions containing binding buffer (100 mM HEPES, pH 8.0, 118 mM NaCl, 1.2 mM MgSO4, 8.8 mM dextrose, 5 mM KCl, 1% bovine serum albumin) and 0.0031 to 1 μCi/ml of [^125I] (2000 Ci/mmol) insulin, IGF-I, or IGF-II. For non-specific binding, duplicate samples were identically prepared but with the addition of 0.1 μM unlabeled (cold) ligand. Incubations were carried out for 16 hours at 4° C. in non-binding 96 well plates (Corning Incorporated Life Science, Lowell, Mass.). Reactions were vacuum harvested (Corning, Lowell, Mass.) onto 96-well GF/C filter plates that had been presoaked for 30 minutes in 0.33% polyethyleneimine (PEI) solution. The filters were washed 5 times with buffer containing 50 mM buffer [4-2-hydroxyethyl)-1-piperazine-ethanesulfonic acid (HEPES), pH 7.4, 500 mM NaCl, and 0.1% BSA. […]

Row | Structure (SMILES) | increase in BrdU labeling [1] | liver regeneration (BrdU incorporation) [1] | liver histology (Long Evans rats; control rats, relative to vehicle-treated controls) | extents of micro- and macrosteatosis (Long Evans rats) | liver histology (hepatic architecture) (Long Evans rats) | BMAX ± S.E.M. (IGF-II receptor; Control + agonist) | BMAX ± S.E.M. (IGF-II receptor; Ethanol + agonist)
1 | CC(C)(Sc1ccc(CCN(CCCCC2CCCCC2)C(=O)NC2CCCCC2)cc1)C(=O)O [PPAR-α, GW7647] | approximately 20% | more modest beneficial effects | no detectable histological changes in liver; also recorded: no detectable effects on liver histology | overtly reduced | reduced the disordered architecture; also recorded: strikingly reduced the ethanol-associated architectural disarray and steatosis | 40.27 ± 3.28 | 28.88 ± 6.20
2 | CC(C)C[C@H](NC(=O)OCC1c2ccccc2-c2ccccc21)C(=O)O [PPAR-γ, F-L-Leu] | approximately 20% |  |  | overtly reduced | reduced the disordered architecture; also recorded: most striking improvements in liver histology; also recorded: strikingly reduced the ethanol-associated architectural disarray and steatosis; also recorded: more effective than the PPAR-α agonist in restoring hepatic architecture | 25.20 ± 2.04 | 22.56 ± 4.43
3 | CCCc1c(OCCCOc2ccc(OCC(=O)O)cc2)ccc(C(C)=O)c1O [PPAR-δ, L-165,041] |  | essentially restored liver regeneration to levels seen in normal control animals; also recorded: returns the liver regenerative response to normal levels; also recorded: more modest beneficial effects |  | overtly reduced | reduced the disordered architecture; also recorded: most striking improvements in liver histology; also recorded: strikingly reduced the ethanol-associated architectural disarray and steatosis; also recorded: more effective than the PPAR-α agonist in restoring hepatic architecture | 29.01 ± 1.99 | 51.50 ± 13.53
